Source: US9833466B2, “Treatment of leukemia with histone deacetylase inhibitors” (Acetylon Pharmaceuticals Inc., priority 2014, dated 2017)
Entries after “also recorded” stand apart in the source; their conditions may differ.

Legend:
HL-60, Kasumi-1 and NB4 [1] = experiment: Apoptosis by Annexin V / propidium iodide flow cytometry in three AML cell lines; format: cell-based; conditions: single agent; 96 hours; HL-60, Kasumi-1, NB4
Procedure: (§1) Briefly, the AML cell lines HL-60 (FIGS. 4A and 4D), Kasumi-1 (FIGS. 4B and 4E) and NB4 (FIGS. 4C and 4F) were treated with the indicated concentrations of compounds. In FIGS. 4A-C, surface levels of myeloid differentiation marker CD11b were determined by FACS at 72 hours post-treatment. […] In FIGS. 4D-F, apoptosis was assessed by flow cytometry by measuring Annexin V binding and cellular permeability to propidium iodide at 96 hours post-treatment. The relative fraction of cells that were alive, in early apoptosis, in late apoptosis, or dead was then determined.
(§2) FIGS. 10A-F show the treatment of the following AML cell lines: Kasumi-1 (FIGS. 10A and 10B), HL-60 (FIGS. 10C and 10D) and NB4 (FIGS. 10E and 10F), with indicated doses of compounds. FIGS. 10A, 10C, and 10E show surface levels of myeloid differentiation marker CD11b determined by FACS at 72 h post-treatment. […] FIGS. 10B, 10D, and 10F show the assessment of apoptosis by FACS (see, e.g., FIG. 9C).

NB4 = experiment: Apoptosis by Annexin V / propidium iodide flow cytometry in NB4; format: cell-based; conditions: 96 hours; for apoptotic cells: combination with azacitidine vs single agent
Procedure: as §1
FIGS. 7A-F show the combination of HDAC inhibitors and azacitidine in the NB4 cell line. Briefly, cells were treated with DMSO, Compound B, Compound A, or Compound E as single agent or in combination with azacitidine at the indicated concentrations. Surface levels of CD11b were determined 72 hours post-treatment (FIGS. 7A, 7C, 7E), and apoptosis was assessed 96 hours post-treatment (FIGS. 7B, 7D, 7F).

MV4-11 [2] = experiment: Apoptosis by Annexin V / propidium iodide flow cytometry in MV4-11; format: cell-based; conditions: 96 h; for induction of apoptosis: combination with azacitidine; for apoptosis relative to control cells: single agent
Procedure: (§3) The distribution of cells among G0/G1 phase, G2/M phase, S phase and subG1 phase was determined. […] The relative fraction of cells that were live, in early apoptosis, in late apoptosis, or dead was then determined.
(§4) MV4-11 cells were treated with Compound E or with Compound A or with Compound B as single agent or in combination with azacitidine at indicated doses. FIGS. 12A, 12C, and 12E show surface levels of CD11b determined by FACS at 72 h post-treatment. FIGS. 12B, 12D, and 12F show assessment of apoptosis by FACS (as in, e.g., FIG. 9C) at 96 h post-treatment.
(§5) FIG. 17. […] (A) Indicated AML cell lines were exposed to increasing concentrations of Compound J to confirm their sensitivity to HDAC1/2 inhibition. (B-D) MV4-11 cells were treated with indicated concentrations of compounds. (B) Surface levels of myeloid differentiation marker CD11b were determined by FACS at 72 h post-treatment. […] (C) Cell cycle was assessed by flow cytometry after incorporation of EdU and staining with Far Red at 72 h post-treatment. The distribution of cells among G0/G1 phase, G2/M phase, S phase and subG1 phase was determined. […] (D) Apoptosis was assessed by flow cytometry via measuring Annexin V binding and cellular permeability to propidium iodide at 96 h post-treatment. The relative fraction of cells that were live, in early apoptosis, in late apoptosis or dead was then determined.

HL-60 [3] = experiment: Surface CD11b by FACS in HL-60; format: cell-based; conditions: combination with azacitidine vs single agent, 96 hours
Procedure: as §1
(§6) FIGS. 5A-F show the combination of HDAC inhibitors and azacitidine in the HL-60 cell line. Briefly, cells were treated with DMSO, Compound B, Compound A, or Compound E as a single agent or in combination with azacitidine for 96 hours. Surface levels of CD11b (FIGS. 5A, 5C, 5E) and apoptosis (FIGS. 5B, 5D, 5F) was assessed by flow cytometry, as in FIG. 4.

HL-60 [4] = experiment: Apoptosis by Annexin V / propidium iodide flow cytometry in HL-60; format: cell-based; conditions: 96 hours; for apoptotic cells: combination with azacitidine vs single agent
Procedure: as §1, §6

MV4-11 [5] = experiment: Surface CD11b by FACS in MV4-11; format: cell-based; conditions: 72 h
Procedure: as §3, §4, §5

[6] = tested on: HDAC1, HDAC2, HDAC3 and HDAC6; experiment: HDAC selectivity of the inhibitor panel; format: biochemical; conditions: HDAC isoform(s) the inhibitor is selective for
Procedure: Compounds for testing are diluted in DMSO to 50 fold the final concentration and a ten point three fold dilution series is made. The compounds are diluted in assay buffer (50 mM HEPES, pH 7.4, 100 mM Kill, 0.001% Tween-20, 0.05% BASE, 20 μM TEC) to 6 fold their final concentration. The HDAC enzymes (purchased from BPS Biosciences) are diluted to 1.5 fold their final concentration in assay buffer. The dipeptide substrate and trypsin at 0.05 μM final concentration are diluted in assay buffer at 6 fold their final concentration. The final enzyme concentrations to use in these assays are 3.3 ng/ml (HDAC1), 0.2 ng/ml (HDAC2), 0.08 ng/ml (HDAC3) and 2 ng/ml (HDAC6). The final substrate concentrations to use are 16 μM (HDAC1), 10 μM (HDAC2), 17 μM (HDAC3) and 14 μM (HDAC6). Five μ1 of compound and 20 μl of enzyme are added to wells of a black, opaque 384 well plate in duplicate. Enzyme and compound are incubated together at room temperature for 10 min. Five μ1 of substrate is added to each well, the plate is shaken for 60 seconds and placed into a Victor 2 microliter plate reader. The development of fluorescence is monitored for 60 min. and the linear rate of the reaction is calculated. The IC50 is determined using Graph Pad Prism by a four parameter curve fit.
The following HDAC inhibitors were used to evaluate the relationship between HDAC selectivity and the viability of AML cell lines upon exposure to the HDAC inhibitor: […]

HL-60, Kasumi-1 and NB4 [7] = experiment: Surface CD11b by FACS in three AML cell lines; format: cell-based; conditions: single agent; 72 hours; all three cell lines
Procedure: as §1, §2

Kasumi-1 [8] = experiment: Apoptosis by Annexin V / propidium iodide flow cytometry in Kasumi-1; format: cell-based; conditions: 96 hours; for apoptotic cells: combination with azacitidine vs single agent
Procedure: as §1
(§7) Briefly, cells were treated with DMSO, Compound B, Compound A, or Compound E as a single agent or in combination with azacitidine at the indicated concentrations. Surface levels of CD11b were determined 72 hours post-treatment (FIGS. 6A, 6C, 6E), and apoptosis was assessed 96 hours post-treatment (FIGS. 6B, 6D, 6F).

Kasumi-1 [9] = experiment: Surface CD11b by FACS in Kasumi-1; format: cell-based; conditions: combination with azacitidine vs single agent, 72 hours
Procedure: as §1, §7

Row | Structure (SMILES) | apoptosis relative to control cells (HL-60, Kasumi-1 and NB4 [1]) | apoptotic cells (NB4) | induction of apoptosis (MV4-11 [2]) | CD11b positive cells (HL-60 [3]) | apoptotic cells (HL-60 [4]) | percentage of CD11b positive cells (MV4-11 [5]; combination with azacitidine) | Selectivity [6] | percentage of CD11b positive cells (HL-60, Kasumi-1 and NB4 [7]) | apoptotic cells (Kasumi-1 [8]) | CD11b positive cells (Kasumi-1 [9]) | apoptosis relative to control cells (MV4-11 [2]) | percentage of CD11b positive cells (MV4-11 [5]; single agent) | apoptosis (NB4; single agent) | apoptosis (HL-60 [4]; single agent) | apoptosis (Kasumi-1 [8]; single agent)
1 | O=C(CCCCCCNC(=O)c1cnc(N(c2ccccc2)c2ccccc2Cl)nc1)NO [Compound B, 2-((2-chlorophenyl)(phenyl)amino)-N-(7-(hydroxyamino)-7-oxoheptyl)pyrimidine-5-carboxamide] | increase in apoptosis relative to control cells | synergistic increases of apoptotic cells | enhanced induction of apoptosis greater than either single agent | synergistic increases of CD11b positive cells | synergistic increases | further increase of percentage of CD11b positive cells | HDAC6 (1/2/3) | increased the percentage of CD11b positive cells | synergistic increases | synergistic increases of CD11b positive cells | – | – | – | – | –
2 | O=C(CCCCCCNC(=O)c1cnc(N(c2ccccc2)c2ccccc2)nc1)NO [Compound A, 2-(diphenylamino)-N-(7-(hydroxyamino)-7-oxoheptyl)pyrimidine-5-carboxamide] | increase in apoptosis relative to control cells; also recorded: increased apoptosis relative to control cells | synergistic increases of apoptotic cells | enhanced induction of apoptosis greater than either single agent | synergistic increases of CD11b positive cells | synergistic increases | further increase of percentage of CD11b positive cells | HDAC6 (1/2/3) | increased the percentage of CD11b positive cells | synergistic increases | synergistic increases of CD11b positive cells | increase in apoptosis relative to control cells | increased the percentage of CD11b positive cells | – | – | –
3 | Nc1ccc(-c2cccs2)cc1NC(=O)c1ccc2c(c1)cc(C1CC1)n2CCN1CCOCC1 [Compound E, N-(2-amino-5-(thiophen-2-yl)phenyl)-2-cyclopropyl-1-(2-morpholinoethyl)-1H-indole-5-carboxamide] | increased apoptosis relative to control cells | synergistic increases of apoptotic cells | enhanced induction of apoptosis greater than either single agent | synergistic increases of CD11b positive cells | synergistic increases | further increase of percentage of CD11b positive cells | selective for HDAC1/2 | increased the percentage of CD11b positive cells | synergistic increases | synergistic increases of CD11b positive cells | increase in apoptosis relative to control cells | increased the percentage of CD11b positive cells | minimal effects | induced apoptosis | induced apoptosis
